Measured values as given in patent publication US20220298579A1, “COMPOSITIONS AND METHODS FOR PREDICTING SUSCEPTIBILITY OF CANCERS TO SYNTHETIC-LETHAL THERAPIES” (University of Florida Research Foundation, Inc., priority 2019, published 2022).

Experiments:
[1] = system: LCL derived from a healthy subject; experiment: DR-GFP reporter assay of HR-mediated DSB repair in LCL; format: cell-based, human; conditions: increasing concentrations of AG490 (25 μM, 50 μM) added 18 h after DR-GFP + ISce1 transfection, harvested after another 30 h
Protocol: (§1) FIGS. 2A to 2O show STAT3 restricts HR repair through Chk1 in oncovirus-transformed cells. FIGS. 2A to 2K show LCL derived from a healthy subject (FIGS. 2A-2E, 2K) and EBV-positive HH514-16 Burkitt lymphoma (BL) cells (FIGS. 2F-2J, 2K) were transfected with DR-GFP plasmid (FIGS. 2A-2D, 2F-2I) and empty vector pCAGGS (FIGS. 2A, 2F) or ISce1 plasmid (FIGS. 2B-2D, 2G-2I), treated with 25 μM (FIGS. 2C, 2H) or 50 μM (FIGS. 2D, 2I) AG490 (a selective STAT3 inhibitor) after 18 h, and harvested after another 30 h for analysis of GFP-positive cells by flow cytometry (FIGS. 2A-2D, 2F-2I) and immunoblotting for phospho(p)STAT3 and β-actin (FIG. 2K). LCL (FIG. 2E) and BL cells (FIG. 2J) were transfected in parallel with pEGFP to monitor transfection efficiency. […]
(§2) For assessment of cell-cycle distribution, cells were fixed, permeabilized, and stained with anti-EBNA2 antibody and 50 μg/ml propidium iodide supplemented with 1 μg/ml RNase A, as previously described (Hill, E. R. et al. J Virol 87:11438-11446 (2013)). […] Data were acquired using a FACS Calibur and analyzed using FlowJo software. […]

STAT3 phosphorylation = conditions: Janus kinase inhibitor; literature (Koganti 2014; Meydan 1996); cited from earlier work
[2] = system: EBV-infected B-cell lines; conditions: 50 μM AG490; previously demonstrated (Koganti et al. 2014); cited from earlier work
[3] = system: EBV-positive HH514-16 Burkitt lymphoma (BL) cells; experiment: DR-GFP reporter assay of HR-mediated DSB repair in BL cells; format: cell-based, human; conditions: increasing concentrations of AG490 (25 μM, 50 μM) added 18 h after DR-GFP + ISce1 transfection, harvested after another 30 h; HH514-16 BL cells
Protocol: as §1, §2

[4] = system: EBV+ BL cell lines (HH514-16, Akata, and Raji); experiment: Growth of EBV+ BL cell lines in the presence of Olaparib (live cell enumeration); format: cell-based, human; conditions: Olaparib used alone, effect more pronounced than on LCL
From the text: (§3) FIGS. 3A-3F show LCL derived from 3 healthy subjects (FIGS. 3A-3C) and 3 EBV^+ BL cell lines (HH514-16, Akata, and Raji; FIGS. 3D-3F) grown in the presence of Olaparib (added at time 0 and every 3-4 days thereafter) and enumerated for live cells on indicated days. FIGS. 3G-3N show LCL (FIGS. 3G-3J) and HH514-16 BL cells (FIGS. 3K-3N) transfected with DR-GFP plasmid (FIGS. 3G, 3H, 3K, 3L) and empty vector pCAGGS (FIGS. 3G, 3K) or ISce1 plasmid (FIGS. 3H, 3L) versus EJ2 plasmid (FIGS. 3I, 3J, 3M, 3N) and pCAGGS (FIGS. 3I, 3M) or ISce1 plasmid (FIGS. 3J, 3N) and harvested after 48 h for analysis of GFP-positive cells by flow cytometry. Numbers in plots indicate percent GFP-positive cells. Experiments were performed 3 times.
(§4) Newly-infected B cells and previously established EBV-LCL were grown in culture using conditions described (Koganti, S., et al. J Virol 88:516-524 (2014)). For experiments using AG490 and Olaparib, chemicals were added to cultures at time 0. For experiments using Olaparib, the drug was supplemented at the initial concentration every fourth day. For experiments using Bleomycin, the drug was added for an hour, following which cells were washed and placed back in culture.

[5] = system: LCL derived from healthy subjects (EBV-transformed cells); experiment: Growth of LCL in the presence of Olaparib (live cell enumeration); format: cell-based, human; conditions: Olaparib used alone, added at time 0 and every 3-4 days thereafter; all LCL (3 healthy subjects)
From the text: as §3, §4

Row | SMILES | percentages of GFP+ cells (HR repair competent) [1] | inhibition of STAT3 phosphorylation (STAT3 phosphorylation) | toxicity to EBV-infected B-cell lines [2] | percentages of GFP+ cells (HR repair competent) [3] | sensitivity to PARP inhibition (growth) [4] | reduction in growth [5]
1 | N#C/C(=C/c1ccc(O)c(O)c1)C(=O)NCc1ccccc1 [AG490] | increased | selectively inhibit STAT3 phosphorylation | minimally toxic | increased |  | 
2 | O=C(c1cc(Cc2n[nH]c(=O)c3ccccc23)ccc1F)N1CCN(C(=O)C2CC2)CC1 [Olaparib] |  |  |  |  | exquisite sensitivity | > 50%
